Reference: patent publication US20060069132A1, “Azolecarboxamide herbicides” (priority 2004, published 2006)

How the values were obtained:
morningglory = test: Test C pre-/postemergence herbicide test; type: in vivo, Ipomoea coccinea; set-up: key to Plant response rating, Morningglory: 0 = no effect, 100 = complete control
Method in brief: (§1)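 Seeds were planted and sprayed preemergence with test chemicals in a non-phytotoxic solvent mixture containing surfactant; postemergence treatments went onto plants 2 to 18 cm tall (1- to 4-leaf stage). After 12 to 14 days in a greenhouse, injury was rated visually against untreated controls on a 0–100 scale.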

large crabgrass = test: Test C pre-/postemergence herbicide test; type: in vivo, Digitaria sanguinalis
Method in brief: as §1

velvetleaf = test: Test C pre-/postemergence herbicide test; type: in vivo, Abutilon theophrasti
Method in brief: as §1

lambsquarters = test: Test C pre-/postemergence herbicide test; type: in vivo, Chenopodium album
Method in brief: as §1

giant foxtail = test: Test C pre-/postemergence herbicide test; type: in vivo, Setaria faberi
Method in brief: as §1

common ragweed = test: Test C pre-/postemergence herbicide test; type: in vivo, Ambrosia elatior; set-up: key to Plant response rating, Ragweed: 0 = no effect, 100 = complete control
Method in brief: as §1

[1] = test system: smallflower umbrella sedge; test: Test C flooded paddy test; type: in vivo, Cyperus difformis; conditions: for Plant response rating, Sedge, Umbrella: 500 g ai/ha, visual rating after 12 to 14 days
bermudagrass = test: Test C pre-/postemergence herbicide test; type: in vivo, Cynodon dactylon
Method in brief: as §1

rice = test: Test C flooded paddy test; type: in vivo, Oryza sativa; conditions: for Plant response rating, Rice: 500 g ai/ha, visual rating after 12 to 14 days
Method in brief: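 Postemergence sprays applied to plants 2 to 18 cm tall (1- to 4-leaf stage); paddy species grown to 2-leaf stage under flooding. After 12 to 14 days in greenhouse, visual rating versus untreated controls on 0–100 scale (0 no effect, 100 complete control).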

[2] = 250 g ai/ha, scale 0-100, preemergence
[3] = 62 g ai/ha, preemergence, scale 0 to 100
[4] = 125 g ai/ha, scale 0 (no effect) to 100 (complete control), visual, 12 to 14 days, preemergence
[5] = 500 g ai/ha, scale 0 to 100 (0 no effect, 100 complete control), visual, 12 to 14 days, preemergence
[6] = 125 g ai/ha, scale 0 to 100 (0 no effect, 100 complete control)
[7] = 250 g ai/ha, scale of 0 to 100, 0 is no effect, 100 is complete control
[8] = scale 0 to 100 (0 no effect, 100 complete control)
[9] = 62 g ai/ha, preemergence, scale 0 to 100, 0 no effect, 100 complete control
[10] = Preemergence, 500 g ai/ha, scale 0 to 100, 0 no effect, 100 complete control

CCc1nn(C(C)(C)C)cc1C(=O)Nc1cc(C(=O)N(C)C)ccn1 [Compound 293]
Plant response rating, Morningglory (morningglory; [2]): 100
Plant response rating, Crabgrass, Large (large crabgrass; [3]): 95
Plant response rating, Crabgrass, Large (large crabgrass; [4]): 95
Plant response rating, Crabgrass, Large (large crabgrass; [2]): 100
Plant response rating, Crabgrass, Large (large crabgrass; [5]): 100
Plant response rating, Velvetleaf (velvetleaf; [3]): 80
Plant response rating, Velvetleaf (velvetleaf; [2]): 100
Plant response rating, Velvetleaf (velvetleaf; [5]): 100
Plant response rating, Lambsquarters (lambsquarters; [3]): 100
Plant response rating, Lambsquarters (lambsquarters; [4]): 100
Plant response rating, Lambsquarters (lambsquarters; [2]): 100
Plant response rating, Lambsquarters (lambsquarters; [5]): 100
Plant response rating, Foxtail, Giant (giant foxtail; [3]): 10
Plant response rating, Foxtail, Giant (giant foxtail; [4]): 70
Plant response rating, Foxtail, Giant (giant foxtail; [2]): 100
Plant response rating, Foxtail, Giant (giant foxtail; [5]): 100
Plant response rating, Ragweed (common ragweed; [3]): 85
Plant response rating, Ragweed (common ragweed; [2]): 100
Plant response rating, Ragweed (common ragweed; [5]): 100
Sedge, Umbrella plant response rating ([1]; 62 g ai/ha, scale 0 to 100): 20
Sedge, Umbrella plant response rating [1, 6]: 75
Sedge, Umbrella plant response rating [1, 7]: 80
Plant response rating, Sedge, Umbrella [1, 8]: 90
Plant response rating, Bermudagrass (bermudagrass; [9]): 90
Plant response rating, Bermudagrass (bermudagrass; [4]): 95
Plant response rating, Bermudagrass (bermudagrass; [2]): 100
Bermudagrass plant response rating (bermudagrass; [10]): 100
Rice plant response rating (rice; 62 g ai/ha, scale 0 to 100): 0
Rice plant response rating (rice; [6]): 30
Rice plant response rating (rice; [7]): 65
Plant response rating, Rice (rice; [8]): 80

CCn1nc(C(C)(C)C)cc1C(=S)Nc1cc(C(=S)N(C)C)ccc1F [Compound 305]
Plant response rating, Morningglory (morningglory; [3]): 0
Plant response rating, Morningglory (morningglory; [4]): 0
Plant response rating, Morningglory (morningglory; [2]): 5
Plant response rating, Morningglory (morningglory; [5]): 10
Plant response rating, Crabgrass, Large (large crabgrass; [3]): 70
Plant response rating, Crabgrass, Large (large crabgrass; [4]): 100
Plant response rating, Crabgrass, Large (large crabgrass; [2]): 100
Plant response rating, Crabgrass, Large (large crabgrass; [5]): 100
Plant response rating, Velvetleaf (velvetleaf; [3]): 40
Plant response rating, Velvetleaf (velvetleaf; [2]): 100
Plant response rating, Velvetleaf (velvetleaf; [5]): 100
Plant response rating, Lambsquarters (lambsquarters; [3]): 100
Plant response rating, Lambsquarters (lambsquarters; [4]): 100
Plant response rating, Lambsquarters (lambsquarters; [2]): 100
Plant response rating, Lambsquarters (lambsquarters; [5]): 100
Plant response rating, Foxtail, Giant (giant foxtail; [3]): 35
Plant response rating, Foxtail, Giant (giant foxtail; [4]): 85
Plant response rating, Foxtail, Giant (giant foxtail; [2]): 100
Plant response rating, Foxtail, Giant (giant foxtail; [5]): 100
Plant response rating, Ragweed (common ragweed; [3]): 10
Plant response rating, Ragweed (common ragweed; [2]): 85
Plant response rating, Ragweed (common ragweed; [5]): 100
Sedge, Umbrella plant response rating ([1]; 62 g ai/ha, scale 0 to 100): 85
Sedge, Umbrella plant response rating [1, 6]: 90
Sedge, Umbrella plant response rating [1, 7]: 90
Plant response rating, Sedge, Umbrella [1, 8]: 90
Plant response rating, Bermudagrass (bermudagrass; [9]): 80
Plant response rating, Bermudagrass (bermudagrass; [4]): 85
Plant response rating, Bermudagrass (bermudagrass; [2]): 100
Bermudagrass plant response rating (bermudagrass; [10]): 100
Rice plant response rating (rice; 62 g ai/ha, scale 0 to 100): 75
Rice plant response rating (rice; [6]): 80
Rice plant response rating (rice; [7]): 85
Plant response rating, Rice (rice; [8]): 85

CCn1nc(C(C)(C)C)cc1C(=O)Nc1cc(C(=S)N(C)C)ccc1F [Compound 294]
Plant response rating, Morningglory (morningglory; [3]): 30
Plant response rating, Morningglory (morningglory; [4]): 30
Plant response rating, Morningglory (morningglory; [2]): 50
Plant response rating, Morningglory (morningglory; [5]): 50
Plant response rating, Crabgrass, Large (large crabgrass; [3]): 70
Plant response rating, Crabgrass, Large (large crabgrass; [4]): 95
Plant response rating, Crabgrass, Large (large crabgrass; [2]): 100
Plant response rating, Crabgrass, Large (large crabgrass; [5]): 100
Plant response rating, Velvetleaf (velvetleaf; [3]): 100
Plant response rating, Velvetleaf (velvetleaf; [2]): 100
Plant response rating, Velvetleaf (velvetleaf; [5]): 100
Plant response rating, Lambsquarters (lambsquarters; [3]): 100
Plant response rating, Lambsquarters (lambsquarters; [4]): 100
Plant response rating, Lambsquarters (lambsquarters; [2]): 100
Plant response rating, Lambsquarters (lambsquarters; [5]): 100
Plant response rating, Foxtail, Giant (giant foxtail; [4]): 80
Plant response rating, Foxtail, Giant (giant foxtail; [2]): 90
Plant response rating, Foxtail, Giant (giant foxtail; [5]): 90
Plant response rating, Ragweed (common ragweed; [3]): 100
Plant response rating, Ragweed (common ragweed; [2]): 100
Plant response rating, Ragweed (common ragweed; [5]): 100
Sedge, Umbrella plant response rating ([1]; 62 g ai/ha, scale 0 to 100): 80
Sedge, Umbrella plant response rating [1, 6]: 85
Sedge, Umbrella plant response rating [1, 7]: 90
Plant response rating, Sedge, Umbrella [1, 8]: 90
Plant response rating, Bermudagrass (bermudagrass; [9]): 70
Plant response rating, Bermudagrass (bermudagrass; [4]): 80
Plant response rating, Bermudagrass (bermudagrass; [2]): 90
Bermudagrass plant response rating (bermudagrass; [10]): 90
Rice plant response rating (rice; 62 g ai/ha, scale 0 to 100): 70
Rice plant response rating (rice; [6]): 75
Rice plant response rating (rice; [7]): 85
Plant response rating, Rice (rice; [8]): 90

CCc1nn(C(C)(C)C)cc1C(=O)Nc1cccc(C(=O)N(CC)CC)c1 [Compound 182, N-[3-[(diethylamino)carbonyl]phenyl]-1-(1,1-dimethylethyl)-3-ethyl-1H-pyrazole-4-carboxamide]
pest or weed control at 62 g/ha (morningglory; Ipomoea, pre-emergence, 62 g ai/ha, preemergence, scale 0 to 100, read-out: Plant response rating, Morningglory): 0%
pest or weed control at 125 g/ha (morningglory; Ipomoea, pre-emergence, 125 g ai/ha, scale 0 (no effect) to 100 (complete control), visual, 12 to 14 days, read-out: Plant response rating, Morningglory): 15%
Morningglory plant response rating (morningglory; [10]): 100
pest or weed control at 62 g/ha (large crabgrass; Digitaria sanguinalis, pre-emergence, 312 h, 62 g ai/ha, preemergence, scale 0 to 100, read-out: Plant response rating, Crabgrass, Large): 0%
pest or weed control at 125 g/ha (large crabgrass; Digitaria sanguinalis, pre-emergence, 312 h, 125 g ai/ha, scale 0 (no effect) to 100 (complete control), visual, 12 to 14 days, read-out: Plant response rating, Crabgrass, Large): 25%
pest or weed control at 250 g/ha (large crabgrass; Digitaria sanguinalis, pre-emergence, 312 h, 250 g ai/ha, scale 0 to 100 (0 no effect, 100 complete control), visual, 12 to 14 days, read-out: Plant response rating, Crabgrass, Large): 75%
Crabgrass, Large plant response rating (large crabgrass; [10]): 100
pest or weed control at 62 g/ha (velvetleaf; Abutilon theophrasti, pre-emergence, 62 g ai/ha, preemergence, scale 0 to 100, read-out: Plant response rating, Velvetleaf): 0%
pest or weed control at 125 g/ha (velvetleaf; Abutilon theophrasti, pre-emergence, 125 g ai/ha, scale 0 (no effect) to 100 (complete control), visual, 12 to 14 days, read-out: Plant response rating, Velvetleaf): 0%
Velvetleaf plant response rating (velvetleaf; [10]): 100
pest or weed control at 62 g/ha (lambsquarters; Chenopodium album, pre-emergence, 62 g ai/ha, preemergence, scale 0 to 100, read-out: Plant response rating, Lambsquarters): 25%
pest or weed control at 125 g/ha (lambsquarters; Chenopodium album, pre-emergence, 125 g ai/ha, scale 0 (no effect) to 100 (complete control), visual, 12 to 14 days, read-out: Plant response rating, Lambsquarters): 95%
Lambsquarters plant response rating (lambsquarters; [10]): 95
Foxtail, Giant plant response rating (giant foxtail; [10]): 60
pest or weed control at 62 g/ha (giant foxtail; Setaria faberi, pre-emergence, 312 h, 62 g ai/ha, preemergence, scale 0 to 100, read-out: Plant response rating, Foxtail, Giant): 0%
pest or weed control at 125 g/ha (giant foxtail; Setaria faberi, pre-emergence, 312 h, 125 g ai/ha, scale 0 (no effect) to 100 (complete control), visual, 12 to 14 days, read-out: Plant response rating, Foxtail, Giant): 0%
pest or weed control at 250 g/ha (giant foxtail; Setaria faberi, pre-emergence, 312 h, 250 g ai/ha, scale 0 to 100 (0 no effect, 100 complete control), visual, 12 to 14 days, read-out: Plant response rating, Foxtail, Giant): 60%
pest or weed control at 62 g/ha (common ragweed; Ambrosia artemisiifolia, pre-emergence, 62 g ai/ha, preemergence, scale 0 to 100, read-out: Plant response rating, Ragweed): 20%
pest or weed control at 125 g/ha (common ragweed; Ambrosia artemisiifolia, pre-emergence, 125 g ai/ha, scale 0 (no effect) to 100 (complete control), visual, 12 to 14 days, read-out: Plant response rating, Ragweed): 20%
Ragweed plant response rating (common ragweed; [10]): 65
pest or weed control at 62 g/ha (bermudagrass; Cynodon dactylon, pre-emergence, 312 h, 62 g ai/ha, preemergence, scale 0 to 100, 0 no effect, 100 complete control, read-out: Plant response rating, Bermudagrass): 20%
pest or weed control at 125 g/ha (bermudagrass; Cynodon dactylon, pre-emergence, 312 h, 125 g ai/ha, scale 0 (no effect) to 100 (complete control), visual, 12 to 14 days, read-out: Plant response rating, Bermudagrass): 75%
pest or weed control at 250 g/ha (bermudagrass; Cynodon dactylon, pre-emergence, 312 h, 250 g ai/ha, scale 0 to 100 (0 no effect, 100 complete control), visual, 12 to 14 days, read-out: Plant response rating, Bermudagrass): 90%
pest or weed control at 500 g/ha (bermudagrass; Cynodon dactylon, pre-emergence, 312 h, Preemergence, 500 g ai/ha, scale 0 to 100, 0 no effect, 100 complete control, read-out: Bermudagrass plant response rating): 95%
